Data: ChEMBL document CHEMBL3885861, “Open TG-GATES”

Species: Rattus norvegicus
Experiment: Open TG-GATES - Regimen: Single
Assay type: toxicity, organism-based, Sprague-Dawley
Design: regimen Single, gender Male, age 6 weeks
Conditions: in vivo, po, route gavage; for APTT / Bas / Eos / Fbg / Hb / Ht / Lym / MCH / MCHC / MCV / Mono / Neu / PT / Plat / RBC / Ret / WBC: tissue Blood; for KIDNEY_L / KIDNEY_R / KIDNEY_TOTAL: tissue Kidney; for LIVER: tissue Liver; for A/G / ALP / ALT / AST / BUN / CRE / Ca / Cl / DBIL / GLC / IP / K / LDH / Na / PL / RALB / TBIL / TC / TG / TP / gamma-GTP: tissue Plasma
[1] = 0 mg/kg, 3 h, dose level Control
[2] = 0 mg/kg, 6 h, dose level Control
[3] = 0 mg/kg, 9 h, dose level Control
[4] = 0 mg/kg, 24 h, dose level Control

## Cn1c(=O)c2[nH]cnc2n(C)c1=O.O [THEOPHYLLINE]
[1]
  TERMINAL_BW: 221.7 g
  APTT: 22.2 s
  Bas: 0%
  Eos: 0.8%
  Fbg: 289.8 mg/dL
  Hb: 13.1 g/dL
  Ht: 39.5%
  Lym: 83.2%
  MCH: 20.7 pg
  MCHC: 33.2%
  MCV: 62.5 fL
  Mono: 1.8%
  Neu: 13.6%
  PT: 15.5 s
  Plat: 119 x10_4/uL
  RBC: 632.2 x10_4/ul
  Ret: 8.4%
  WBC: 101.2 x10_2/uL
  KIDNEY_L: 1 g
  KIDNEY_R: 1 g
  KIDNEY_TOTAL: 2 g
  LIVER: 10.3 g
  A/G: 1.3
  ALP: 1309 IU/L
  ALT: 43.6 IU/L
  AST: 70 IU/L
  BUN: 13.8 mg/dL
  CRE: 0.2 mg/dL
  Ca: 10.5 mg/dL
  Cl: 105 meq/L
  DBIL: 0 mg/dL
  GLC: 190.4 mg/dL
  IP: 8.8 mg/dL
  K: 4.2 meq/L
  LDH: 179 IU/L
  Na: 142.6 meq/L
  PL: 135.8 mg/dL
  RALB: 3 g/dL
  TBIL: 0.018 mg/dL
  TC: 77.4 mg/dL
  TG: 49.2 mg/dL
  TP: 5.3 g/dL
  gamma-GTP: 1.2 IU/L
[2]
  TERMINAL_BW: 213.2 g
  APTT: 21.5 s
  Bas: 0%
  Eos: 0.6%
  Fbg: 300.6 mg/dL
  Hb: 13.7 g/dL
  Ht: 40.9%
  Lym: 82.2%
  MCH: 20.8 pg
  MCHC: 33.4%
  MCV: 62.3 fL
  Mono: 2.6%
  Neu: 13.2%
  PT: 15.6 s
  Plat: 118.7 x10_4/uL
  RBC: 657.2 x10_4/ul
  Ret: 7.4%
  WBC: 102.6 x10_2/uL
  KIDNEY_L: 1 g
  KIDNEY_R: 1 g
  KIDNEY_TOTAL: 1.9 g
  LIVER: 9.1 g
  A/G: 1.2
  ALP: 1402.8 IU/L
  ALT: 39.8 IU/L
  AST: 75.6 IU/L
  BUN: 10.8 mg/dL
  CRE: 0.1 mg/dL
  Ca: 10.4 mg/dL
  Cl: 105.8 meq/L
  DBIL: 0 mg/dL
  GLC: 183.8 mg/dL
  IP: 9.3 mg/dL
  K: 4.4 meq/L
  LDH: 202 IU/L
  Na: 142.6 meq/L
  PL: 124.6 mg/dL
  RALB: 2.9 g/dL
  TBIL: 0.024 mg/dL
  TC: 72.8 mg/dL
  TG: 48.2 mg/dL
  TP: 5.4 g/dL
  gamma-GTP: 1 IU/L
[3]
  TERMINAL_BW: 212.6 g
  APTT: 22.9 s
  Bas: 0%
  Eos: 0.8%
  Fbg: 310.2 mg/dL
  Hb: 13.3 g/dL
  Ht: 39.9%
  Lym: 77.6%
  MCH: 20.5 pg
  MCHC: 33.3%
  MCV: 61.6 fL
  Mono: 2.4%
  Neu: 18%
  PT: 15.8 s
  Plat: 119 x10_4/uL
  RBC: 649.6 x10_4/ul
  Ret: 7.5%
  WBC: 79.6 x10_2/uL
  KIDNEY_L: 1 g
  KIDNEY_R: 1 g
  KIDNEY_TOTAL: 2 g
  LIVER: 8.6 g
  A/G: 1.2
  ALP: 1444.4 IU/L
  ALT: 35.2 IU/L
  AST: 70.4 IU/L
  BUN: 12.6 mg/dL
  CRE: 0.2 mg/dL
  Ca: 10.8 mg/dL
  Cl: 105.8 meq/L
  DBIL: 0 mg/dL
  GLC: 188 mg/dL
  IP: 9.2 mg/dL
  K: 4.3 meq/L
  LDH: 180.6 IU/L
  Na: 140.8 meq/L
  PL: 125.6 mg/dL
  RALB: 3.1 g/dL
  TBIL: 0.022 mg/dL
  TC: 73.2 mg/dL
  TG: 52.8 mg/dL
  TP: 5.5 g/dL
  gamma-GTP: 1 IU/L
[4]
  TERMINAL_BW: 228.3 g
  APTT: 21.9 s
  Bas: 0%
  Eos: 1%
  Fbg: 291.2 mg/dL
  Hb: 13.6 g/dL
  Ht: 40.4%
  Lym: 82.2%
  MCH: 20.8 pg
  MCHC: 33.7%
  MCV: 61.5 fL
  Mono: 2.6%
  Neu: 13%
  PT: 15.9 s
  Plat: 115.8 x10_4/uL
  RBC: 657 x10_4/ul
  Ret: 6.9%
  WBC: 97 x10_2/uL
  KIDNEY_L: 1 g
  KIDNEY_R: 1 g
  KIDNEY_TOTAL: 2 g
  LIVER: 10.4 g
  A/G: 1.2
  ALP: 1398.8 IU/L
  ALT: 40.8 IU/L
  AST: 69.4 IU/L
  BUN: 16.6 mg/dL
  CRE: 0.2 mg/dL
  Ca: 10.9 mg/dL
  Cl: 106.2 meq/L
  DBIL: 0 mg/dL
  GLC: 193.4 mg/dL
  IP: 7.7 mg/dL
  K: 4.3 meq/L
  LDH: 221 IU/L
  Na: 143.4 meq/L
  PL: 151.6 mg/dL
  RALB: 3 g/dL
  TBIL: 0.008 mg/dL
  TC: 80.4 mg/dL
  TG: 100.2 mg/dL
  TP: 5.5 g/dL
  gamma-GTP: 1.2 IU/L
20 mg/kg, 3 h, dose level Low
  TERMINAL_BW: 211.4 g
  APTT: 22.4 s
  Bas: 0%
  Eos: 1%
  Fbg: 298.2 mg/dL
  Hb: 13.1 g/dL
  Ht: 39.2%
  Lym: 80.4%
  MCH: 21.1 pg
  MCHC: 33.5%
  MCV: 62.9 fL
  Mono: 2.4%
  Neu: 15.2%
  PT: 15.8 s
  Plat: 125.8 x10_4/uL
  RBC: 623 x10_4/ul
  Ret: 7.2%
  WBC: 83.9 x10_2/uL
  KIDNEY_L: 0.9 g
  KIDNEY_R: 0.9 g
  KIDNEY_TOTAL: 1.8 g
  LIVER: 9.4 g
  A/G: 1.3
  ALP: 1988.6 IU/L
  ALT: 46.8 IU/L
  AST: 75 IU/L
  BUN: 14.4 mg/dL
  CRE: 0.2 mg/dL
  Ca: 10.6 mg/dL
  Cl: 108.8 meq/L
  DBIL: 0 mg/dL
  GLC: 181.8 mg/dL
  IP: 7.2 mg/dL
  K: 3.5 meq/L
  LDH: 159.2 IU/L
  Na: 141.8 meq/L
  PL: 137.4 mg/dL
  RALB: 3.2 g/dL
  TBIL: 0.02 mg/dL
  TC: 80.6 mg/dL
  TG: 45.4 mg/dL
  TP: 5.8 g/dL
  gamma-GTP: 1.2 IU/L
20 mg/kg, 6 h, dose level Low
  TERMINAL_BW: 213.7 g
  APTT: 23.5 s
  Bas: 0%
  Eos: 0.6%
  Fbg: 315.4 mg/dL
  Hb: 13.8 g/dL
  Ht: 41.9%
  Lym: 82.8%
  MCH: 20.8 pg
  MCHC: 33.1%
  MCV: 63 fL
  Mono: 2.4%
  Neu: 12.8%
  PT: 15.5 s
  Plat: 129.9 x10_4/uL
  RBC: 664.6 x10_4/ul
  Ret: 7.4%
  WBC: 99.4 x10_2/uL
  KIDNEY_L: 0.9 g
  KIDNEY_R: 0.9 g
  KIDNEY_TOTAL: 1.9 g
  LIVER: 9 g
  A/G: 1.2
  ALP: 1532.8 IU/L
  ALT: 46 IU/L
  AST: 85.2 IU/L
  BUN: 9.8 mg/dL
  CRE: 0.2 mg/dL
  Ca: 10.5 mg/dL
  Cl: 108.2 meq/L
  DBIL: 0 mg/dL
  GLC: 178.2 mg/dL
  IP: 8.4 mg/dL
  K: 3.8 meq/L
  LDH: 174.8 IU/L
  Na: 141 meq/L
  PL: 126.6 mg/dL
  RALB: 3.1 g/dL
  TBIL: 0.02 mg/dL
  TC: 73.2 mg/dL
  TG: 51.8 mg/dL
  TP: 5.6 g/dL
  gamma-GTP: 1.2 IU/L
20 mg/kg, 9 h, dose level Low
  TERMINAL_BW: 210.6 g
  APTT: 23.2 s
  Bas: 0%
  Eos: 1%
  Fbg: 297 mg/dL
  Hb: 13.5 g/dL
  Ht: 40.9%
  Lym: 78%
  MCH: 20.4 pg
  MCHC: 33%
  MCV: 61.6 fL
  Mono: 2.4%
  Neu: 18%
  PT: 15.6 s
  Plat: 121.1 x10_4/uL
  RBC: 666.6 x10_4/ul
  Ret: 6.9%
  WBC: 89.6 x10_2/uL
  KIDNEY_L: 0.9 g
  KIDNEY_R: 1 g
  KIDNEY_TOTAL: 1.9 g
  LIVER: 8.8 g
  A/G: 1.3
  ALP: 1401 IU/L
  ALT: 43.4 IU/L
  AST: 73.8 IU/L
  BUN: 11.6 mg/dL
  CRE: 0.2 mg/dL
  Ca: 10.9 mg/dL
  Cl: 106 meq/L
  DBIL: 0 mg/dL
  GLC: 170.4 mg/dL
  IP: 8.8 mg/dL
  K: 4.3 meq/L
  LDH: 168 IU/L
  Na: 140.8 meq/L
  PL: 120.8 mg/dL
  RALB: 3.1 g/dL
  TBIL: 0.014 mg/dL
  TC: 66.8 mg/dL
  TG: 51.4 mg/dL
  TP: 5.6 g/dL
  gamma-GTP: 1.2 IU/L
20 mg/kg, 24 h, dose level Low
  TERMINAL_BW: 224.5 g
  APTT: 22.3 s
  Bas: 0%
  Eos: 1%
  Fbg: 316.8 mg/dL
  Hb: 13.7 g/dL
  Ht: 40.8%
  Lym: 80%
  MCH: 20.6 pg
  MCHC: 33.5%
  MCV: 61.5 fL
  Mono: 2.6%
  Neu: 15.2%
  PT: 15.9 s
  Plat: 146.8 x10_4/uL
  RBC: 664.2 x10_4/ul
  Ret: 7.2%
  WBC: 79.6 x10_2/uL
  KIDNEY_L: 0.9 g
  KIDNEY_R: 1 g
  KIDNEY_TOTAL: 1.9 g
  LIVER: 10.2 g
  A/G: 1.2
  ALP: 1615.2 IU/L
  ALT: 38.6 IU/L
  AST: 67.6 IU/L
  BUN: 16.4 mg/dL
  CRE: 0.2 mg/dL
  Ca: 11.1 mg/dL
  Cl: 106.2 meq/L
  DBIL: 0 mg/dL
  GLC: 186 mg/dL
  IP: 7.8 mg/dL
  K: 4.3 meq/L
  LDH: 175.8 IU/L
  Na: 142.6 meq/L
  PL: 145.8 mg/dL
  RALB: 3.1 g/dL
  TBIL: 0.006 mg/dL
  TC: 79.2 mg/dL
  TG: 94.4 mg/dL
  TP: 5.6 g/dL
  gamma-GTP: 1.8 IU/L
